# Measured values published in PubChem BioAssay (NCI).
#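 96-well plates; 48 h exposure; 5 concentrations. Endpoints by linear interpolation between flanking doses. Not reached: highest tested concentration assigned. GI50 is the concentration that inhibits growth by half. At the TGI there is no net growth.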
# How the values were obtained:
# Test in all cases: inhibition of tumour cell growth, NCI panel, 48 h
# K-562 leukemia = tested on: K-562 leukemia
# RXF 393 renal = tested on: RXF 393 renal
# SF-268 CNS = tested on: SF-268 CNS
# SW-620 colon = tested on: SW-620 colon
# HL-60(TB) leukemia = tested on: HL-60(TB) leukemia
# OVCAR-8 ovarian = tested on: OVCAR-8 ovarian
# SN12C renal = tested on: SN12C renal
# BT-549 breast = tested on: BT-549 breast
# COLO 205 colon = tested on: COLO 205 colon
# HS 578T breast = tested on: HS 578T breast
# EKVX NSCLC = tested on: EKVX NSCLC
# MCF7 breast = tested on: MCF7 breast
# UO-31 renal = tested on: UO-31 renal
# SK-MEL-2 melanoma = tested on: SK-MEL-2 melanoma
# HT29 colon = tested on: HT29 colon
# PC-3 prostate = tested on: PC-3 prostate
# MOLT-4 leukemia = tested on: MOLT-4 leukemia
# M14 melanoma = tested on: M14 melanoma
# HOP-62 NSCLC = tested on: HOP-62 NSCLC
# CCRF-CEM leukemia = tested on: CCRF-CEM leukemia
# UACC-62 melanoma = tested on: UACC-62 melanoma
# SNB-75 CNS = tested on: SNB-75 CNS
# UACC-257 melanoma = tested on: UACC-257 melanoma
# 786-0 renal = tested on: 786-0 renal
# HOP-92 NSCLC = tested on: HOP-92 NSCLC
# DU-145 prostate = tested on: DU-145 prostate
# MALME-3M melanoma = tested on: MALME-3M melanoma
# MDA-MB-231 breast = tested on: MDA-MB-231 breast
# SNB-19 CNS = tested on: SNB-19 CNS
# T-47D breast = tested on: T-47D breast
# ACHN renal = tested on: ACHN renal
# NCI-H226 lung = tested on: NCI-H226 lung
# MDA-MB-435 = tested on: MDA-MB-435
# TK-10 renal = tested on: TK-10 renal
# LOX IMVI melanoma = tested on: LOX IMVI melanoma
# NCI-H522 lung = tested on: NCI-H522 lung
# OVCAR-5 ovarian = tested on: OVCAR-5 ovarian
# NCI-H23 lung = tested on: NCI-H23 lung
# RPMI-8226 leukemia = tested on: RPMI-8226 leukemia
# OVCAR-4 ovarian = tested on: OVCAR-4 ovarian
# CAKI-1 renal = tested on: CAKI-1 renal
# HCC-2998 colon = tested on: HCC-2998 colon
# HCT-116 colon = tested on: HCT-116 colon
# A498 renal = tested on: A498 renal
# IGROV1 ovarian = tested on: IGROV1 ovarian
# KM12 colon = tested on: KM12 colon
# SK-OV-3 ovarian = tested on: SK-OV-3 ovarian
# HCT-15 colon = tested on: HCT-15 colon
# U251 CNS = tested on: U251 CNS
# SF-539 CNS = tested on: SF-539 CNS
# SK-MEL-28 melanoma = tested on: SK-MEL-28 melanoma
# SK-MEL-5 melanoma = tested on: SK-MEL-5 melanoma
# OVCAR-3 ovarian = tested on: OVCAR-3 ovarian
# A549 NSCLC = tested on: A549 NSCLC
# SF-295 CNS = tested on: SF-295 CNS
# NCI/ADR-RES ovarian = tested on: NCI/ADR-RES ovarian
# NCI-H460 lung = tested on: NCI-H460 lung
smiles,measurement,setting,value
N#CC1=C(N)Oc2c(sc3c(F)cccc23)C1c1ccc(F)cc1 (centres undefined),GI50,K-562 leukemia,354 nM
same,TGI,K-562 leukemia,18400 nM
same,GI50,RXF 393 renal,1070 nM
same,TGI,RXF 393 renal,6310 nM
same,GI50,SF-268 CNS,1130 nM
same,TGI,SF-268 CNS,15300 nM
same,GI50,SW-620 colon,531 nM
same,TGI,SW-620 colon,16300 nM
same,GI50,HL-60(TB) leukemia,284 nM
same,TGI,HL-60(TB) leukemia,2740 nM
same,GI50,OVCAR-8 ovarian,1610 nM
same,TGI,OVCAR-8 ovarian,22500 nM
same,GI50,SN12C renal,1280 nM
same,TGI,SN12C renal,15800 nM
same,GI50,BT-549 breast,604 nM
same,TGI,BT-549 breast,14200 nM
same,GI50,COLO 205 colon,2830 nM
same,TGI,COLO 205 colon,13200 nM
same,GI50,HS 578T breast,414 nM
same,TGI,HS 578T breast,11400 nM
same,GI50,EKVX NSCLC,3240 nM
same,TGI,EKVX NSCLC,20200 nM
same,GI50,MCF7 breast,391 nM
same,TGI,MCF7 breast,12400 nM
same,GI50,UO-31 renal,1270 nM
same,TGI,UO-31 renal,12100 nM
same,GI50,SK-MEL-2 melanoma,982 nM
same,TGI,SK-MEL-2 melanoma,18600 nM
same,GI50,HT29 colon,1620 nM
same,TGI,HT29 colon,12500 nM
same,GI50,PC-3 prostate,892 nM
same,TGI,PC-3 prostate,16200 nM
same,GI50,MOLT-4 leukemia,521 nM
same,TGI,MOLT-4 leukemia,13300 nM
same,GI50,M14 melanoma,410 nM
same,TGI,M14 melanoma,6410 nM
same,GI50,HOP-62 NSCLC,760 nM
same,TGI,HOP-62 NSCLC,19200 nM
same,GI50,CCRF-CEM leukemia,470 nM
same,TGI,CCRF-CEM leukemia,25300 nM
same,GI50,UACC-62 melanoma,551 nM
same,TGI,UACC-62 melanoma,14900 nM
same,GI50,SNB-75 CNS,338 nM
same,TGI,SNB-75 CNS,14900 nM
same,GI50,UACC-257 melanoma,16600 nM
same,TGI,UACC-257 melanoma,39500 nM
same,GI50,786-0 renal,746 nM
same,TGI,786-0 renal,11700 nM
same,GI50,HOP-92 NSCLC,2360 nM
same,TGI,HOP-92 NSCLC,13400 nM
same,GI50,DU-145 prostate,1790 nM
same,TGI,DU-145 prostate,12900 nM
same,GI50,MALME-3M melanoma,602 nM
same,TGI,MALME-3M melanoma,22200 nM
same,GI50,MDA-MB-231 breast,1440 nM
same,TGI,MDA-MB-231 breast,11500 nM
same,GI50,SNB-19 CNS,585 nM
same,TGI,SNB-19 CNS,15000 nM
same,GI50,T-47D breast,610 nM
same,TGI,T-47D breast,26900 nM
same,GI50,ACHN renal,752 nM
same,TGI,ACHN renal,16100 nM
same,GI50,NCI-H226 lung,1710 nM
same,TGI,NCI-H226 lung,15800 nM
same,GI50,MDA-MB-435,212 nM
same,TGI,MDA-MB-435,631 nM
same,GI50,TK-10 renal,8240 nM
same,TGI,TK-10 renal,25300 nM
same,GI50,LOX IMVI melanoma,727 nM
same,TGI,LOX IMVI melanoma,12200 nM
same,GI50,NCI-H522 lung,473 nM
same,TGI,NCI-H522 lung,10800 nM
same,GI50,OVCAR-5 ovarian,2950 nM
same,TGI,OVCAR-5 ovarian,14600 nM
same,GI50,NCI-H23 lung,1450 nM
same,TGI,NCI-H23 lung,14800 nM
same,GI50,RPMI-8226 leukemia,1050 nM
same,TGI,RPMI-8226 leukemia,14700 nM
same,GI50,OVCAR-4 ovarian,2030 nM
same,TGI,OVCAR-4 ovarian,16600 nM
same,GI50,CAKI-1 renal,508 nM
same,TGI,CAKI-1 renal,15900 nM
same,GI50,HCC-2998 colon,1620 nM
same,TGI,HCC-2998 colon,8580 nM
same,GI50,HCT-116 colon,492 nM
same,TGI,HCT-116 colon,13000 nM
same,GI50,A498 renal,150 nM
same,TGI,A498 renal,909 nM
same,GI50,IGROV1 ovarian,621 nM
same,TGI,IGROV1 ovarian,14700 nM
same,GI50,KM12 colon,465 nM
same,TGI,KM12 colon,12800 nM
same,GI50,SK-OV-3 ovarian,1610 nM
same,TGI,SK-OV-3 ovarian,19700 nM
same,GI50,HCT-15 colon,421 nM
same,TGI,HCT-15 colon,12000 nM
same,GI50,U251 CNS,569 nM
same,TGI,U251 CNS,15300 nM
same,GI50,SF-539 CNS,447 nM
same,TGI,SF-539 CNS,2670 nM
same,GI50,SK-MEL-28 melanoma,1910 nM
same,TGI,SK-MEL-28 melanoma,19700 nM
same,GI50,SK-MEL-5 melanoma,657 nM
same,TGI,SK-MEL-5 melanoma,14300 nM
same,GI50,OVCAR-3 ovarian,363 nM
same,TGI,OVCAR-3 ovarian,1880 nM
same,GI50,A549 NSCLC,1050 nM
same,TGI,A549 NSCLC,19100 nM
same,GI50,SF-295 CNS,364 nM
same,TGI,SF-295 CNS,6280 nM
same,GI50,NCI/ADR-RES ovarian,375 nM
same,TGI,NCI/ADR-RES ovarian,4360 nM
same,GI50,NCI-H460 lung,415 nM
same,TGI,NCI-H460 lung,7770 nM
